Assay results published in patent US20260083864A1, “CONTRAST AGENTS FOR USE IN DIAGNOSTIC COMPUTED TOMOGRAPHY IMAGING” (Bayer Aktiengesellschaft, priority 2022, published 2026).

Key:
[1] = Relaxivity measurements at 1.41 T in human plasma; format: physicochemical; conditions: 37° C., normalized to Gd
Procedure, shortened: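 T1 determined by inversion recovery (8 inversion-time steps) and T2 by CPMG sequence, both with relaxation delay ≥5×T1. Each relaxivity used three Gd concentrations between 0.05 and 2 mM. Relaxivities were derived from relaxation rates measured in water and plasma.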

[2] = Complex stability (transmetallation) against Zn2+ in phosphate buffer; conditions: 72 hours, 2.5 mM Zn^2+, 26 mM phosphate buffer, 37° C., pH 7.4
Excerpt: If test compounds are instable under these conditions, transmetallation during this test would lead to the formation of the Zn^2+ complex of the test item, while Gd^3+ is released and precipitated as highly insoluble GdPO4.

[3] = Water solubility in aqueous buffer; conditions: aqueous buffer 10 mM Tris-HCl, pH 7.4, 20° C.
Experimental: The solid compounds were added stepwise to the buffer solution. More substance is added once all the suspended material is dissolved until an equilibrium between undissolved and dissolved substance is reached. The suspension was mixed using a shaker (Heidolph Reax 2000) and treated 5 min in an ultrasound bath (Bandelin, Sonorex Super RK255H).

[4] = test system: freshly isolated rat hepatocytes; experiment: Uptake into freshly isolated rat hepatocytes; conditions: for Uptake rat hepatocytes: 100 μmol Gd/L, 10 min, 37° C., relative to RC1 (Gd-EOB-DTPA); for Inhibition Rifampicine: rat hepatocyte uptake, test item and Rifampicine 1:1, each 100 μM
[5] = Relaxivity measurements at 1.41 T in water; format: physicochemical; conditions: 37° C., normalized to Gd
Procedure, shortened: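 T1 by inversion recovery and T2 by CPMG at 1.41 T (60 MHz), 37° C, relaxation delay ≥5×T1. Three Gd concentrations between 0.05 and 2 mM; relaxivities derived from measured relaxation rates in water.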

[6] = Partition coefficient (log P butanol/buffer); format: physicochemical; conditions: 1-butanol / 50 mM Tris-HCl, pH 7.4, room temperature
OATP1B1 = target: T1, OATP1B1 (Homo sapiens, UniProt Q9Y6L6); experiment: Uptake into stable transfected OATP1B1 HEK 293 cells; format: cell-based; conditions: for Uptake into OATP1B1-HEK 293 cells: 40 min incubation, relative to RC1 (Gd-EOB-DTPA); for Inhibition Rifampicine: uptake into OATP1B1-HEK 293 cells
T1 sequence (Q9Y6L6 1-691): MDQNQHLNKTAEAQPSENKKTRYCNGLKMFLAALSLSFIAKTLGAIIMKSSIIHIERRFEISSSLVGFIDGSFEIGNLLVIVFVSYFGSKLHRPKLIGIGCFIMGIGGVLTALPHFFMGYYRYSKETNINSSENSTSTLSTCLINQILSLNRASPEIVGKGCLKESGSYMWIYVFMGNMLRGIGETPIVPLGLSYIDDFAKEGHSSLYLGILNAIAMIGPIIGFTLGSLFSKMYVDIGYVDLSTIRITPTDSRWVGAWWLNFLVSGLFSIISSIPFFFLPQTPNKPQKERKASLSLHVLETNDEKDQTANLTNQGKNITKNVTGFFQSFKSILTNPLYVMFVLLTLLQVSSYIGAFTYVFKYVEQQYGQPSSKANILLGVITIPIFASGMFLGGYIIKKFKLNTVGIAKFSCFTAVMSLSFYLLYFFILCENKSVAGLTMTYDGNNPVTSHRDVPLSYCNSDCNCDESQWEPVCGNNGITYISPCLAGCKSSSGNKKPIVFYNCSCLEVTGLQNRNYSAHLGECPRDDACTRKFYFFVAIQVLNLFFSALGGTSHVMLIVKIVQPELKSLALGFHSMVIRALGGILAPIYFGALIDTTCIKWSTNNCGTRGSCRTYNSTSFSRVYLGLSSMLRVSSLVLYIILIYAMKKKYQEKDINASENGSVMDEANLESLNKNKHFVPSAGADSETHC
Procedure, shortened: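 Stably transfected OATP1B1 HEK293 cells incubated 40 min without shaking with test item at 100 µM final in transport buffer, in triplicate. Cells then washed with cold PBS; gadoxetate run on the same plate as reference.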

OATP1B3 = target: T2, OATP1B3 (Homo sapiens, UniProt Q9NPD5); experiment: Uptake into stable transfected OATP1B3 HEK 293 cells; format: cell-based; conditions: for Uptake into OATP1B3-HEK 293 cells: 40 min incubation, relative to RC1 (Gd-EOB-DTPA); for Inhibition Rifampicine: uptake into OATP1B3-HEK 293 cells
T2 sequence (Q9NPD5 1-702): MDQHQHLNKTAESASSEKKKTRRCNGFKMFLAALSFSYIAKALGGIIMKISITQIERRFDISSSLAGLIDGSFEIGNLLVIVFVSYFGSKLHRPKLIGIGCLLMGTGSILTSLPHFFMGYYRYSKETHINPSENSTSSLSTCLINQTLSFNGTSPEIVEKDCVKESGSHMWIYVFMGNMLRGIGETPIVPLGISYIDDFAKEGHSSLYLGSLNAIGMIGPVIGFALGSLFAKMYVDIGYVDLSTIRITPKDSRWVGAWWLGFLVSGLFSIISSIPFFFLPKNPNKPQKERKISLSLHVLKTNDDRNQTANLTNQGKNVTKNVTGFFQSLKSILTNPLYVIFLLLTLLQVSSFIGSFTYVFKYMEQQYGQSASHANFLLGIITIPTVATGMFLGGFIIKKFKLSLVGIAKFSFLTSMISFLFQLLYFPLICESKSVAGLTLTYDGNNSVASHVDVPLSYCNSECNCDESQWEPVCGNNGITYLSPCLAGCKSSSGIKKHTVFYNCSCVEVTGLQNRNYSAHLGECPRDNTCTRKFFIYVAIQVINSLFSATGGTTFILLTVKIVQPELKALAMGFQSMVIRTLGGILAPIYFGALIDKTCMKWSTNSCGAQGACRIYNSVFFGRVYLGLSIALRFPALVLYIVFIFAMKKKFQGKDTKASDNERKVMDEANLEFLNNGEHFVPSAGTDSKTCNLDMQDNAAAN
Procedure, shortened: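 HEK 293 cells stably transfected with human OATP1B3 were incubated for 40 min with test items at 100 μM final in transport buffer, in triplicate, then washed with cold PBS. Gadoxetate (Gd-EOB-DTPA) served as the reference standard on the same plate.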

| Compound | r1 human plasma [1] [L/mmol/s] | Transmetallation stability [2] [%] | Solubility [3] [mM] | Uptake rat hepatocytes [4] | Inhibition Rifampicine [4] [% inhibition] | r1 water [5] [L/mmol/s] | Log P (partition coefficient butanol/buffer) [6] | Uptake into OATP1B1-HEK 293 cells (OATP1B1) | Inhibition Rifampicine (OATP1B1) [% inhibition] | Uptake into OATP1B3-HEK 293 cells (OATP1B3) | Inhibition Rifampicine (OATP1B3) [% inhibition] |
| --- | --- | --- | --- | --- | --- | --- | --- | --- | --- | --- | --- |
| CCOCCOCCOc1ccc(C[C@H](C(=O)O)N2CCN(CC(=O)[O-])CCN(CC(=O)[O-])CCN(CC(=O)[O-])CC2)cc1.[Gd+3] [Example 4, gadolinium 2,2′,2″-{10-[(1R)-1-carboxy-2-{4-[2-(2-ethoxyethoxy)ethoxy]phenyl}ethyl]-1,4,7,10-tetraazacyclododecane-1,4,7-triyl}triacetate] | 6.5 | 100 | >75 | 72 % of RC1 | 98 | 4.2 | −1.61 | 126 % of RC1 | 40 | 58 % of RC1 | 98 |
| COCC(C(=O)O)N1CCN(CC(=O)[O-])CCN(C(Cc2ccc(OCC(F)(F)C(F)F)cc2)C(=O)[O-])CCN(CC(=O)[O-])CC1.[Gd+3] (stereo not drawn) [Example 45, gadolinium-2-{4,10-bis(carboxylatomethyl)-7-[1-carboxy-2-methoxyethyl]-1,4,7,10-tetraazacyclododecan-1-yl}-3-[4-(2,2,3,3-tetrafluoropropoxy)phenyl]propanoate] | 11.4 | 100 | >63 | 68 % of RC1 | 82 | 4.5 | −0.36 | 492 % of RC1 | 95 | 106 % of RC1 | 98 |
| CCOCCOCCOc1ccc(CC(C(=O)O)N2CCN(CC(=O)[O-])CCN(C(C)C(=O)[O-])CCN(CC(=O)[O-])CC2)cc1.[Gd+3] (single isomer, unassigned) [Example 6, gadolinium 2-[7-(1-carboxy-2-{4-[2-(2-ethoxyethoxy)ethoxy]phenyl}ethyl)-4,10-bis(carboxylatomethyl)-1,4,7,10-tetraazacyclododecan-1-yl]propanoate] | 6.6 | 102 | >217 | 62 % of RC1 | 96 | 4.3 | −1.44 | – | – | – | – |
| CCOCCOCCOc1ccc(CC(C(=O)[O-])N2CCN(CC(=O)[O-])CCN(C(CC)C(=O)O)CCN(CC(=O)[O-])CC2)cc1.[Gd+3] (stereo not drawn) [Example 43, gadolinium-2-{4,10-bis(carboxylatomethyl)-7-[1-carboxypropyl]-1,4,7,10-tetraazacyclododecan-1-yl}-3-{4-[2-(2-ethoxyethoxy)ethoxy]phenyl}propanoate] | 6.9 | 102 | >209 | 90 % of RC1 | 97 | 4.8 | −1.19 | 122 % of RC1 | 62 | 111 % of RC1 | 99 |
| CCOCCOCCOc1ccc(CCCC(C(=O)O)N2CCN(CC(=O)[O-])CCN(CC(=O)[O-])CCN(CC(=O)[O-])CC2)cc1.[Gd+3] (stereo not drawn) [Example 25, gadolinium 2,2′,2″-{10-[1-carboxy-4-{4-[2-(2-ethoxyethoxy)ethoxy]phenyl}butyl]-1,4,7,10-tetraazacyclododecane-1,4,7-triyl}triacetate] | 7.5 | 103 | 306 | 82 % of RC1 | 96 | 4.6 | −1.00 | 30 % of RC1 | 75 | 58 % of RC1 | 93 |
| O=C([O-])CN1CCN(CC(=O)[O-])CCN(C(Cc2ccc(OCC(F)(F)C(F)F)cc2)C(=O)O)CCN(CC(=O)[O-])CC1.[Gd+3] (stereo not drawn) [Example 46, gadolinium 2,2′,2″-(10-{1-carboxy-2-[4-(2,2,3,3-tetrafluoropropoxy)phenyl]ethyl}-1,4,7,10-tetraazacyclododecane-1,4,7-triyl)triacetate] | 10.8 | 101 | >263 | 106 % of RC1 | 90 | 3.5 | −0.57 | 356 % of RC1 | 95 | 43 % of RC1 | 97 |
| CCCOc1ccc(CC(C(=O)O)N2CCN(CC(=O)[O-])CCN(CC(=O)[O-])CCN(CC(=O)[O-])CC2)cc1.[Gd+3] (stereo not drawn) [Example 48, gadolinium 2,2′,2″-{10-[1-carboxy-2-(4-propoxyphenyl)ethyl]-1,4,7,10-tetraazacyclododecane-1,4,7-triyl}triacetate] | 9.3 | 99 | 16 | 77 % of RC1 | 98 | 4.0 | – | 240 % of RC1 | 92 | 11 % of RC1 | 81 |
